This experiment concerns SKOV-3 cells. Briefly: Cytotoxicity assay (MTT) against SKOV-3 cells. The class given is cell-based, Human. Conditions: SKOV-3, 72 hours. How it is done: Human ovarian cancer cells, SKOV-3 and SKOV-3/Luc cells, were cultured in GIBCO™ DMEM supplemented with 10% FBS, 100 units/mL penicillin, and 100 μg/mL streptomycin at 37° C. in […] culture flasks under a humidified atmosphere of 5% CO2. Cells were sub-cultured when the cell confluence reached ˜80%.
The anticancer activities of polymer nanogels against SKOV-3 cells were evaluated by MTT assay. Cells were seeded in 96-well plates at a density of 5,000 cells/well for 24 hours prior to the test at 37° C. with 5% CO2. Then the cells were treated with varying concentrations of PTX/DOX or polymer nanogels in fresh medium and further incubated for 72 hours. In the control group, cells were allowed to grow without any treatment. After that, the medium was replaced with 100 μL fresh medium containing MTT reagent (final concentration 1 mg/mL) and cells were further incubated for 4 hours. The purple MTT crystal was dissolved with 100 μL MTT stop solution and the optical density at 595 nm was recorded on a microplate reader (ELx808™ Absorbance Microplace Reader, Bio-Tech Instrument, Inc.).

For `COc1cccc2c1C(=O)c1c(O)c3c(c(O)c1C2=O)C[C@@](O)(C(=O)CO)C[C@@H]3O[C@H]1C[C@H](N)[C@H](O)[C@H](C)O1` [DOX, doxorubicin], the IC50 (commonly the concentration that inhibits the measured activity by half) (DOX, PPD and PPDA nanogels) is 582 nM. In other words, the sub-micromolar range.
In the case of `CC(=O)O[C@H]1C(=O)[C@@]2(C)[C@H]([C@H](OC(=O)c3ccccc3)[C@]3(O)C[C@H](OC(=O)[C@H](O)[C@@H](NC(=O)c4ccccc4)c4ccccc4)C(C)=C1C3(C)C)[C@]1(OC(C)=O)CO[C@@H]1C[C@@H]2O` [PTX, paclitaxel], where the note is “Homo sapiens, SK-OV-3, PTX, PPP and PPPM nanogels”, it took 30.6 nM to reach half-maximal inhibition (IC50).

Values taken from patent publication US11478493B2, “Fabrication and application of a hetero-targeted nano-cocktail with traceless linkers” (priority 2019, dated 2022).
